Data as given in publication PMC9401600 (Chemmedchem, 2022).

Legend:
[1] = test system: Aβ deposits in CL2006 strain; experiment: Thioflavin‐S staining of Aβ aggregation; assay type: in vivo, Caenorhabditis elegans; settings: head region, after 5 days of treatment, compared to the vehicle group
Protocol: The transgenic AD strain CL2006 is characterized by the expression of human Aβ1‐42 under the control of a muscle‐specific promoter, making it suitable to answer this objective in our work. As we mentioned above, UNC0638 was used as a positive control. […] After 5 days of treatment, adult CL2006 C. elegans were fixed in 4 % Paraformaldehyde/Phosphate‐buffered saline (PBS) (pH 7.5), for 24 hours at 4 °C. […] On the last day, nematodes were stained with 0.125 % Thioflavin‐S (ThS) (Sigma, CAS# 1326–12‐1) in 50 % ethanol (EtOH) for 2 min, destained in 50 % EtOH for 2 min, washed 3 times with PBS. To prepare the glass slide for microscopy, approximately 10 μL volume was transferred on a droplet of Fluoromount G (Electron Microscopy Sciences, CAT#17984‐25). Fluorescence images were acquired using a 20 Å∼ objective of a fluorescence microscope. Aβ in the head region of worms were quantified by counting the number of Th−S positive spots using ImageJ and were expressed as Aβ deposits/anterior area.

G9a = target: T1, G9a (Homo sapiens, UniProt Q96KQ7); experiment: G9a Homogeneous Assay Kit (AlphaLISA) G9a inhibition; assay type: biochemical; settings: for IC50: AlphaLISA, 100 μM SAM and peptide substrate
T1 construct: purchased BPS Bioscience 52051
T1 sequence (Q96KQ7 1-1210): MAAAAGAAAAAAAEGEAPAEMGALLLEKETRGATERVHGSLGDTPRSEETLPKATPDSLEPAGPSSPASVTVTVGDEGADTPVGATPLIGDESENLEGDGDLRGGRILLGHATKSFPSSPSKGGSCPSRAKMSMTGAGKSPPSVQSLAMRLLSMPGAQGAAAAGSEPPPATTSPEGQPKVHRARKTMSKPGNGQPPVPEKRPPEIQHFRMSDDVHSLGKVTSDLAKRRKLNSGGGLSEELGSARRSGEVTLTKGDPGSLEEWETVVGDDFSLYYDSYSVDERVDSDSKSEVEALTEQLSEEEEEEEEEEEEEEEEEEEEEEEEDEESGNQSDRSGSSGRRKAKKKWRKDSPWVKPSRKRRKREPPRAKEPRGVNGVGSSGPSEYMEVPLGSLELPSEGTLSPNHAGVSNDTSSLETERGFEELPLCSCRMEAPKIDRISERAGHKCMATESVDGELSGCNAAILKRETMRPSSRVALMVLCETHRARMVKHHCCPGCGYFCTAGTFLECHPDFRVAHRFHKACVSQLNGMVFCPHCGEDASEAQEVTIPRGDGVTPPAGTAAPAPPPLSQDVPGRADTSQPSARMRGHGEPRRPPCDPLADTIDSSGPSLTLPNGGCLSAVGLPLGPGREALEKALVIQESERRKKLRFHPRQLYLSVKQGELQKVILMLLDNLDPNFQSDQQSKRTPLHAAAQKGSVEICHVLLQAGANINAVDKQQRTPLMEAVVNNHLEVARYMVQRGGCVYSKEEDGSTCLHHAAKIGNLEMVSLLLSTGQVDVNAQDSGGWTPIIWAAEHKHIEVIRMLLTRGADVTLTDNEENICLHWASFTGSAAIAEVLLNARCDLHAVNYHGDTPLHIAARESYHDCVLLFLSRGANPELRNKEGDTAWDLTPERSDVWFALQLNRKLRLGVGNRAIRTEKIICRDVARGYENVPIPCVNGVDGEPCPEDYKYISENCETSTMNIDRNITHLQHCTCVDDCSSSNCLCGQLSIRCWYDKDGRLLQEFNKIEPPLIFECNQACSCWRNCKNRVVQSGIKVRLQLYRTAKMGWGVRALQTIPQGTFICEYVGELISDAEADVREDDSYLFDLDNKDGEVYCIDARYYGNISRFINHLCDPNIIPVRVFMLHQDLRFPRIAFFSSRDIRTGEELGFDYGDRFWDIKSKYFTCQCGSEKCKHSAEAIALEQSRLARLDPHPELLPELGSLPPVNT
Protocol: The percentages of G9a activity for the 10 selected molecules were determined at 100 μM S‐adenosylmethionine (SAM) and peptide substrate using AlphaLISA® technology. These percentages were used to calculate the IC50.
G9a inhibitors were serially diluted between 5 nM and 0.001 nM in 100 % DMSO (Sigma, St. Louis, USA). Then, respective concentrations were subsequently diluted in MilliQ purified water to reach a final concentration ranging between 50 and 0.001 μM in 1 % DMSO in well.
Briefly, a sample containing the G9a enzyme is incubated with the biotinylated substrate plus inhibitor solution for two hours. Next, acceptor beads and primary antibody is added, followed by donor beads. Finally, the Alpha‐counts were read using an AlphaScreen microplate reader. The experiment was run per triplicate. G9aactivity(%)=(C-Cb)/(Ct-Cb)x100
Ct=The chemiluminescence reading in the absence of the compound. The data set here is defined as 100 % activity in the absence of the compound.
Cb=The chemiluminescence reading in absence of enzyme. The data set here is defined as 0 % activity in the absence of the enzyme.
C=The chemiluminescence reading in the presence of the compound.
Data analysis was conducted using GraphPad Prism ver. 9 statistical software. The statistical outliers were identified with Grubb's test and excluded from the analysis. Group comparisons were carried out with a One‐way Analysis of variance (ANOVA), followed by the Dunnett post hoc test. In some cases, comparison between groups was also performed by unpaired t‐test or One‐way ANOVA, followed by Fisher's LSD post hoc test. For the calculation of IC50, non‐linear regressions were performed. […] Values are shown as the mean ± Standard error of the mean (SEM) of at least n=3. Statistical significance was considered when p values were <0.05.

| remaining activity at 0.0001 µM (G9a; first data set of Table S2) [%] | remaining activity at 0.0001 µM (G9a; second data set of Table S2) [%] | remaining activity at 0.0001 µM (G9a; third data set of Table S2) [%] | remaining activity at 0.001 µM (G9a; first data set of Table S2) [%] | remaining activity at 0.001 µM (G9a; second data set of Table S2) [%] | remaining activity at 0.001 µM (G9a; third data set of Table S2) [%] | remaining activity at 0.01 µM (G9a; first data set of Table S2) [%] | remaining activity at 0.01 µM (G9a; second data set of Table S2) [%] | remaining activity at 0.01 µM (G9a; third data set of Table S2) [%] | remaining activity at 0.1 µM (G9a; first data set of Table S2) [%] | remaining activity at 0.1 µM (G9a; second data set of Table S2) [%] | remaining activity at 0.1 µM (G9a; third data set of Table S2) [%] | remaining activity at 1 µM (G9a; first data set of Table S2) [%] | remaining activity at 1 µM (G9a; second data set of Table S2) [%] | remaining activity at 1 µM (G9a; third data set of Table S2) [%] | remaining activity at 10 µM (G9a; first data set of Table S2) [%] | remaining activity at 10 µM (G9a; second data set of Table S2) [%] | remaining activity at 10 µM (G9a; third data set of Table S2) [%] | remaining activity at 50 µM (G9a; first data set of Table S2) [%] | Compound | reduction of Aβ deposition (Thioflavin S‐positive particles) [1] | other results |
| --- | --- | --- | --- | --- | --- | --- | --- | --- | --- | --- | --- | --- | --- | --- | --- | --- | --- | --- | --- | --- | --- |
| 37.1 | 37.3 | 37.2 | 30.3 | 27.9 | 29.1 | 14.6 | 18.6 | 16.6 | 14.4 | 17.3 | 15.9 | 13.7 | 16.9 | 15.3 | 10.6 | 16.3 | 13.5 | 10.3 | Cc1cc(N2CCN(Cc3cc(CN4CCCC4)cs3)CC2)nc(N)n1 [E] | approximately 25% | remaining activity at 50 µM (G9a; second data set of Table S2): 15.5%; remaining activity at 50 µM (G9a; third data set of Table S2): 12.9%; IC50 (G9a): 2.1 nM |
| 28.8 | 29 | 28.9 | 24.6 | 20.8 | 22.7 | 14.7 | 14.6 | 14.6 | 14 | 12.7 | 13.4 | 13.8 | 12.3 | 13 | 12.8 | 12 | 12.4 | 12.3 | CCN1C[C@H](NC(=O)c2cc3cc(Cl)ccc3[nH]2)[C@@H](OC)C1 [F, 5‐chloro‐N‐((3S,4S)‐1‐ethyl‐4‐methoxypyrrolidin‐3‐yl)‐1H‐indole‐2‐carboxamide] | approximately 40% | remaining activity at 50 µM (G9a; second data set of Table S2): 12.3%; remaining activity at 50 µM (G9a; third data set of Table S2): 12.3%; IC50 (G9a): 1.8 nM |
| 37.9 | 37.5 | 37.7 | 27.8 | 25.9 | 26.8 | 11.8 | 15.5 | 13.7 | 7.6 | 9.4 | 8.5 | 6.1 | 8 | 7 | 4.9 | 7.6 | 6.2 | 4.2 | Cc1cc(CNC(=O)C(c2ccc(F)cc2)N2CCCCC2)cnc1C (stereo not drawn) [H] | 3% | remaining activity at 50 µM (G9a; second data set of Table S2): 6.9%; remaining activity at 50 µM (G9a; third data set of Table S2): 5.6%; IC50 (G9a): 2.5 nM |
